Data on three compounds can be found in patent publication US20020107197A1, “Ligands for G protein coupled receptors and methods of using them” (priority 2000, published 2002).

In data set [1] the target is T1, TDAG8 (Homo sapiens, UniProt Q8IYL9).
T1 construct: expressed in transfected cells
In words: SRE luciferase reporter in TDAG8-transfected HEK293 cells. The data set is classed as cell-based. The conditions noted are these: lipid 1 μM, TDAG8-transfected HEK293 cells. On the technique in general: In a reporter assay the amount or activity of a reporter protein is the signal.

Another data set deals with T2, OGR1 (Homo sapiens, UniProt Q15743).
T2 construct: expressed in transfected cells
Description: SPC binding affinity for OGR1.

Data set [2] has as its target T3, GPR4 (Homo sapiens, UniProt P46093).
T3 construct: were used to generate full length GPR4, which was digested with EcoRI and Xba I and cloned into the pBs3HA vector; expressed in transfected cells
In words: Internalization of GPR4-GFP in HEK293 cells (confocal microscopy). The data set is classed as cell-based. The conditions noted are these: 1 μM lipid, 37° C., GPR4-GFP HEK293 cells. How it is done: pGPR4-GFP stably expressing HEK293 cells were cultured in 6 cm tissue culture dishes in RPMI1640 with 10% FBS. After 16-24 h serum starvation, cells were treated with different lipids at 37° C. for 2 h. Cells were washed with cold PBS and fixed with 4% paraformaldehyde in PBS. The subcellular localization of GPR4-GFP protein was visualized under a Leica TV confocal fluorescence microscope with a 63× oil immersion lens (Wetzler, Heidelberg, Germany). The excitation and emission wavelengths were 488 nm and 515-540 nm, respectively.
G protein coupled receptors undergo agonist-dependent desensitization and internalization. When HEK293 cells are transfected with the pEGFP-N1 vector, GFP protein is expressed in the cytosol of the cells. The GPR4-GFP and TDAG8-GFP fusion proteins, on the other hand, was expressed only on the plasma membrane.

Data set [3] relates to vector-transfected HEK293 cells. In words: SRE luciferase reporter in vector-transfected HEK293 cells. The data set is classed as cell-based, human. As for the experimental part: The serum-response element (SRE) reporter system is a sensitive assay for receptors of lipid factors (An et al. (1998) J Biol Chem 273, 7906-7910; An et al. (1999) Mol Pharmacol 55, 787-794). The SRE reporter system used herein (pSRE-Luc) was a gift from Dr. Songzhu An (UCSF), or may be purchased from Stratagene (La Jolla, Calif.). Both systems give identical results. HEK293 and HEK293GPR4 cells were cultured in RPMI1640 with 10% FBS in 10 cm dishes to ˜85% confluence. To the cells in each dish, pSRE-Luc (10 μg) was transfected in the presence of 60 μl LipofectAMINE reagent. Cells were seeded in 96-well plates 16 h after transfection, incubated for another 24 h in RPMI1640 with 10% FBS, and starved in serum-free medium for 16 h. SPC (dissolved in PBS to 10 mM) and other lipids (LPCs were dissolved in 70% ethanol. Other lipids were dissolved in PBS, 70-95% ethanol, or 100% MeOH) were diluted in serum free RPMI 1640 and added to the cells, followed by a 10 h incubation. Luciferase activity was measured in Microlite™ 1 plates (DYNEX Technologies, Inc., Virginia) using 60 μl of cell lysate and 20 μl luciferase substrate. PTX (100 ng/ml) was added during the 16 h serum starvation period and pcDNA1-C3 (encoding the C3-exoenzyme, 2 μg) was co-transfected with pSRE-Luc (10 μg). All experiments were performed in quadruplicate and were repeated at least three times. The Student's t test was performed using the GraphPad Instat software (San Diego, Calif.). p<0.05 was considered to be statistically significant.

Data set [4] concerns the target T1, TDAG8. In words: MAP kinase reporter system in TDAG8 co-transfected HEK293 cells. The data set is classed as cell-based. The conditions noted are these: 1-5 μM. From the text: To further explore the TDAG8-mediated cellular response to SPC, MAP kinase activation was examined using the MAP kinase reporter system from Stratagene.
Data set [5] has as its target T3, GPR4. In words: Transwell cell migration of GPR4-transfected HEK293 cells. The conditions noted are these: 0.2 μM. The data set is classed as cell-based. As for the experimental part:
To determine whether GPR4 and/or TDGA8 can mediate the LPC-induced cell migration, we transfected HEK293 cells with GPR4 or TDAG8. Cell migration was performed in Transwell apparatus. GPR4-transfected HEK293 cells, and TDAG8-transfected HEK293 cells migrated to the low-phase of the membrane and the lower chamber of the Transwell in response to SPC and LPC, used at 0.2 μM.

Data set [6] deals with T3, GPR4. Description: DNA synthesis ([3H]thymidine incorporation) in GPR4-infected Swiss 3T3 cells. The data set is classed as cell-based. The conditions noted are these: 3 μM, GPR4-infected Swiss 3T3 cells. As for the experimental part:
The effect of SPC and LPC on DNA synthesis was measured using [^3H] thymidine incorporation. Briefly, GPR4-ires-GFP- and GFP-Swiss 3T3 cells were plated in 96-well plates, serum-starved for 24 h, and treated with SPC, LPC, or other lipids in serum-free DMEM for 24 h. Cells were incubated with 0.75 μCi/ml [^3H]thymidine in serum-free DMEM for the last 18 h. Cells were harvested onto filter papers presoaked in 1% polyethylenimine using the automated cell harvester HARVEST 96. Incorporated [^3H]thymidine was counted in a 1450 Microbeta Trilux Liquid Scintillation and Luminescence Counter (Perkin-Elmer-Wallac, Inc.).
In general terms: Incorporation of labelled thymidine or its analogues reports DNA synthesis.

The test system of the next data set is cells. The conditions noted are these: cited from earlier work.

T3 sequence (P46093 whole entry): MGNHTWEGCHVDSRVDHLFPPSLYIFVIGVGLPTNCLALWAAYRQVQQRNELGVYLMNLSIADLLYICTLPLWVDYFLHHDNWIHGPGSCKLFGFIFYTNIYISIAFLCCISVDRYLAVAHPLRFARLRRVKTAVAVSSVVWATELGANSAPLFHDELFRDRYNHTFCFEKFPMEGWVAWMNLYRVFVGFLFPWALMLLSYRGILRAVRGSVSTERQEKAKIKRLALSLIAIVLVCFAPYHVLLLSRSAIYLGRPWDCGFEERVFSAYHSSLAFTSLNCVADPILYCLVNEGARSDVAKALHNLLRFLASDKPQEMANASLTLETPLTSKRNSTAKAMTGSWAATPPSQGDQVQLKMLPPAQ
T1 sequence (Q8IYL9 whole entry): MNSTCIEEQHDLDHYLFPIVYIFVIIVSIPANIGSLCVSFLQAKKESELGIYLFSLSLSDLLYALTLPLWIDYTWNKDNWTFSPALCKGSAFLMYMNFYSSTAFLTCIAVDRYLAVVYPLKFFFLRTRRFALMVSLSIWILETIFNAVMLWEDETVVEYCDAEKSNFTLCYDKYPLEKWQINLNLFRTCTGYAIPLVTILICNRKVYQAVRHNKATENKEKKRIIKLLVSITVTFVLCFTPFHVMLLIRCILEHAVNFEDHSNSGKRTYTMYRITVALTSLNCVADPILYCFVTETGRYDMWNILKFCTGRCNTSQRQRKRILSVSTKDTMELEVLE
T2 sequence (Q15743 whole entry, species assumed): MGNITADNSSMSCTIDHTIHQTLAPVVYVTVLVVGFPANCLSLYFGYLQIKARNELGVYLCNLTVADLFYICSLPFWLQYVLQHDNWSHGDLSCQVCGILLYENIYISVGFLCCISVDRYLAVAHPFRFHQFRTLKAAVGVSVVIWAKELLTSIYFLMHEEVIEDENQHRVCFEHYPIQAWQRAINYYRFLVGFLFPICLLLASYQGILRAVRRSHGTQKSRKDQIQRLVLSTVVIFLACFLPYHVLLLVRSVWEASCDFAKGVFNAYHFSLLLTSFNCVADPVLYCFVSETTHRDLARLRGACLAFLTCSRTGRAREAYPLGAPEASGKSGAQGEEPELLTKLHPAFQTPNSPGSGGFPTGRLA

Consider `CCCCCCCCCCCCC/C=C/[C@@H](O)[C@@H](N)COP(=O)([O-])OCC[N+](C)(C)C` [SPC, Sphingosylphosphorylcholine], for which the “activation of SRE reporter” value at TDAG8 [1] was 4 fold; in data set [3] (lipid 1 μM) it was at most 1.5 fold. At OGR1, this compound came in with a Kd of 33 nM. For the same compound, the “internalization of GPR4” value at GPR4 [2] is reported as “induced internalization of GPR4”. At TDAG8 [4], the “activation of p42/44 MAP kinase (reporter luciferase activity)” value is reported as “induced activation of p42/44 MAP kinase”. Further, the “cell migration in Transwell (in words)” value on GPR4 [5] is given as “increased cell migration”.

As for `CCCCCCCCCCCCCCCC(=O)OC[C@@H](O)COP(=O)([O-])OCC[N+](C)(C)C` [16:0-LPC], the “increase of [3H]thymidine incorporation” value on GPR4 [6] worked out at 1.6 fold. The “activation of SRE reporter” value on TDAG8 [1] is reported as 3.1 fold. Further, the “internalization of GPR4” value at GPR4 [2] is on record as “induced internalization of GPR4”. For the same compound, in data set [3], the “transcriptional activation of SRE (in words)” value was “not”.

Consider lysophosphatidylcholine [LPC], for which, in the data set with cells, the “concentration at which cells are lysed” value was over 30 µM. On TDAG8 [4], the “activation of p42/44 MAP kinase (reporter luciferase activity)” value was “induced activation of p42/44 MAP kinase”. The “cell migration in Transwell (in words)” value at GPR4 [5] is “increased cell migration”.

As usually defined, the Kd is the concentration at which binding is half-saturated. Lower therefore signals a tighter complex.
